From patent US20260248852A1, “SYNTHETIC ANTIGEN RECEPTORS FOR COVALENT IMMUNE RECRUITERS AND METHODS AND USES THEREOF” (McMaster University, priority 2022, published 2026) come the findings set out here.

Entries after “also recorded” stand apart in the source; their conditions may differ.

Common to all, as to assay type: cell-based, human
Data set [1] concerns PSMA transduced HEK-293 cells. Description: CD69 upregulation of DNP-TAC T cells following stimulation with HEK-293 PSMA cells. The note with it: DNP-TAC T cells pre labelled 6 hours; co-culture overnight. How it is done:
The cells were co-cultured together overnight at 37 degrees. To stop the activation, 20 mM EDTA was added and incubated for 15 minutes. The cells were spun down, media was aspirated, and the cells were stored in 200 μL of cRPMI at 4 degrees prior to staining. The cells were stained with Live-Dead Zombie Aqua, anti-CD3 BV605, anti-CD4 Pacific Blue, anti-CD8 Alexa Fluor 700, anti-NGFR Viobright FITC, and anti-CD69 BV650. Upon staining the cells were run on the Beckman Coulter Cytoflex flow cytometer and analyzed for CD69 expression.

The subject of data set [2] is PSMA transduced HEK-293 cells. Briefly: IFN-gamma / TNF-alpha production of Anti-DNP TAC ABT cells following stimulation with HEK-293 PSMA cells. The note with it: Anti-DNP TAC ABT cells prelabelled 6 hours; co-culture 4 hours. How it is done:
The cells were co-cultured together for 4 hours at 37 degrees. Golgi plug was added prior to the co-incubation to prevent cytokine secretion. To stop the activation 20 mM EDTA was added and incubated for 15 minutes. The cells were spun down, media was aspirated, and the cells were stored in 200 μL of cRPMI overnight at 4 degrees. The next day, the cells were surface stained with anti-CD4 Pacific Blue, anti-CD8 Alexa Fluor 700, and anti-NGFR Viobright FITC. The cells were then fixed and permeabilized using a fix/perm buffer solution. The cells were then intracellularly stained with anti-CD3 BV605, anti-TNF-alpha PE-CY7, and anti-IFN-gamma APC. Cells were then run on the Beckman Coulter Cytoflex flow cytometer. The percent of cells positive for TNF-alpha and IFN-gamma, as well as cells positive for both were recorded in the table for the separate CD4 and CD8 T-cell populations.

Data set [3] concerns PSMA-positive LNCaP cells. Briefly: Anti-DNP TAC ABT cell mediated killing of LNCaP cells (Incucyte). How it is done: Measuring T cell mediated killing of LNCaP cells: LNCaP prostate cancer cells, which are prostate specific membrane antigen (PSMA) positive, were engineered with Nuclight Red lentivirus to produce cells with nuclear localized red fluorescence to allow for ease of imaging in these experiments. […] The 3 components were co-cultured for 3 days with 4 images per well taken every 6 hours. Samples were run in triplicate. The number of LnCap cells per well at each time point was calculated using the Incucyte cell by cell analysis software and plotted. The area under the growth curve was used as a metric for tumor cell growth for this figure. The larger the area, the greater the tumor cell growth that occurred over the 3 days. The area under the curve for the LnCap control and each condition were used to calculate the % cytotoxicity.

For data set [4], the system named is PSMA-positive LNCaP cells. Description: Anti-DNP GDT cell mediated killing of LNCaP cells (Incucyte). How it is done:
Measuring T cell mediated killing of LNCaP cells: LNCaP prostate cancer cells, which are prostate specific membrane antigen (PSMA) positive, were engineered with Nuclight Red lentivirus to produce cells with nuclear localized red fluorescence to allow for ease of imaging in these experiments. […] Samples were run in triplicate. The number of LNCaP cells per well at each time point was calculated using the Incucyte cell by cell analysis software and plotted. The area under the growth curve was used as a metric for tumor cell growth for this figure. The larger the area, the greater the tumor cell growth that occurred over the 3 days. The area under the curve for the LNCaP control and each condition were used to calculate the % cytotoxicity.

In data set [5] the test system is 293-PSMA cells. Description: CD69 and Nur77 expression of activated ABT cells with 293-PSMA cells. An excerpt: (§1) Cells were stained for surface marker expression via Pacific Blue-conjugated mouse anti-human CD4, and AlexaFluor700-conjugated mouse anti-human CD8a, VioBright FITC-conjugated mouse anti-human NGFR, and anti-huCD69, fixed and permeabilized in Permiabilization concentrate diluted in permeabilization diluent, and stained intracellularly with PE-conjugated mouse anti-mouse Nur77.

Data set [6] relates to HEK293-PSMA cells (PSMA expressing). Description: Cytokine production of engineered ABT cells following stimulation with HEK293-PSMA cells. How it is done: (§2) Measuring cytokine production following stimulation with HEK-293 cells: In a 96 well round bottom plate, 4E5 HEK293-PSMA cells (PSMA expressing) or HEK293-WT cells were incubated with 4E5 Anti-DNP TAC ABT cells, Anti-DNP DAP12 SAR ABT cells, or Anti-CD28 CAR ABT-cells. […] To stop the activation 20 mM EDTA was added and incubated for 15 minutes. Cells were stained for surface expression of CD4 and CD8, fixed and permeabilized in Cytofix/Cytoperm buffer, and stained with APC-conjugated mouse anti-human interferon-gamma, and FITC-conjugated mouse anti-human tumor necrosis factor-alpha. Cells were then run on the Beckman Coulter Cytoflex flow cytometer. The percent of cells positive for tumor necrosis factor-alpha and interferon-gamma for CD4 and CD8 T-cell populations were graphed separately showing the same overall trends.

Data set [7] concerns 293-PSMA cells. Briefly: Proliferation of adapter functionalized engineered ABT cells (CellTrace Violet). How it is done: Each engineered T cell was also cultured in media alone as a control to compare to. All proliferation assay samples were incubated for 3 days at 37° C. and 5% CO2. Cells were then stained with Live/Dead Fixable Near-IR stain, PerCP-Cy5.5-conjugated mouse anti-human CD8a, Alexa Fluor 700-conjugated mouse anti-human CD4, VioBright FITC-conjugated mouse anti-human NGFR, and BV605-conjugated mouse anti-human CD3. Flow cytometry data were acquired.

Data set [8] has as its system 293-WT cells (do not express PSMA). Briefly: CD69 and Nur77 expression of ABT cells with 293-WT cells. Conditions: engineered ABT cells, 100 nM.
Excerpt: as §1

Data set [9] relates to HEK293-WT cells. Briefly: Cytokine production of engineered ABT cells, controls with 293-WT cells or no tumor cells. The note with it: Media+CIR; 293-WT+CIR. On the procedure:
as §2

Data set [10] deals with uPAR-positive A172 cells. Briefly: Anti-DNP GDT cell mediated killing of A172 cells. Conditions: Anti-DNP CD28 CAR GDT cells; E:T 8:1; 1, 10, 100 nM; 3 days. How it is done: Engineering GDT cells with Anti-DNP DAP12-SAR or Anti-DNP CD28 CAR: PBMC were seeded at 4E6 cells per well in a 24 well G-Rex plate in the presence of 1 ug/ml zoledronate and 1.5 ng/ml human IL2. Three days later, the cells were incubated overnight in a 24 well non tissue culture treated plate that was pre coated with retronectin and retrovirus supernatant containing viruses encoding the Anti-DNP DAP12-SAR or Anti-DNP CD28 CAR. The cells were then transferred back to the G-Rex plate and cultured for a further 11 days at which point, the cell product was collected, CD4/CD8 T cells were removed by magnetic selection and the purified engineered GDT cells were cryopreserved.
Measuring T cell mediated killing of A172 cells: A172 cells, which are urokinase type plasminogen activator receptor (uPAR) positive, were engineered with eGFP lentivirus to produce green fluorescent protein expressing cells. […] Also added to the wells were uPAR-CIR or uPAR-(N)CIR at a range of concentrations from 1 nM, 10 nM and 100 nM. […] Samples were run in triplicate. The green image mean of the wells at each time point was calculated using the Incucyte cell by cell analysis software and plotted to yield the following figures. […] For the analysis of killing by Anti-DNP CD28 CAR GDT cells, the area under the growth curve (AUC) was analyzed using PRISM Graphpad and to calculate the % cytotoxicity.

Turning to `O=C(O)CC[C@H](NC(=O)N[C@@H](CCCCNC(=O)NCCOCCOCCOCCOCCOCCOCCOCCOC(=O)n1cnc(CCNC(=O)CNc2ccc([N+](=O)[O-])cc2[N+](=O)[O-])c1)C(=O)O)C(=O)O` [PSMA-CIR, DNP-Acyl Imidazole-Glutamate Urea Lysine], the “T cell activation based on upregulation of CD69” value in data set [1] is recorded as “PSMA-specific activation; also recorded: capable of stimulating Anti-DNP TAC T cell activation”. In [2], the “production of IFN-gamma and TNF-alpha” value was “production of IFN-gamma and TNF-alpha”. For the same compound, the “killing of LNCaP cells” value in [3] (E:T 8:1, 15.63 nM to 125 nM, 3 days) is recorded as “could trigger killing; also recorded: promoted killing of the LNCaP cells at low nM concentrations”; in data set [4] (Anti-DNP CD28 CAR GDT cells, 125 nM adapter), “could direct T cell cytotoxicity; also recorded: displayed tumor growth control”; in [4] (Anti-DNP DAP12-SAR GDT cells, 125 nM adapter) it was “could trigger killing; also recorded: only suppressed tumor growth in the presence of the PSMA-CIR”; in [4] (CD28 CAR GDT cells, 10 nM adapter), “robust LNCaP killing”. For the same compound, the “concentration effective at engaging tumor killing” value in data set [3] (E:T 8:1, 3 days) is reported as not above 15 nM. In addition, the “adapter concentration at which tumor killing is observed” value in data set [4] (Anti-DNP CD28 CAR GDT cells) and in data set [4] (Anti-DNP DAP12 SAR GDT cells) was not above 15 nM throughout. Besides, in data set [4] (Anti-DNP DAP12 SAR and Anti-DNP CD28 CAR GDT cells, 1 uM adapter for 6 hours, washed, then co-culture), the “killing of LNCaP cells after preincubation and wash” value was “retained the ability to kill LNCaP cells”. For the same compound, the “LNCaP killing over a range of concentrations” value in [4] (both Anti-DNP DAP12-SAR GDT cells and Anti-DNP CD28 CAR GDT cells, 15.6 nM-250 nM) is recorded as “sustained across all concentrations”. Further, the “T cell activation (Nur77, CD69), compared to PSMA-(N)CIR” value in data set [5] (Anti-DNP DAP12-SAR T cells, 10 nM and 1 nM) is “greater activation at both concentrations”; in data set [5] (Anti-DNP-CD28 CAR T cells) it was “much greater activation”. Besides, the “T cell activation (Nur77, CD69)” value in data set [5] (Anti-DNP TAC-T cells, 10 nM and 1 nM) is given as “could elicit T cell activation”. For the same compound, in data set [5] (TAC, DAP12-SAR and CD28-CAR ABT cells, 293-PSMA, 100 nM, 4 hours), the “upregulation of Nur77 and CD69” value is “Upregulation of Nur77 and CD69; also recorded: only occurred in the presence of CIR and PSMA-expressing target cells”. In addition, the “upregulation of Nur77 and CD69, CIR compared to (N)CIR” value in data set [5] (all engineered ABT cells, 293-PSMA, 10 nM and 1 nM) is “stronger with CIR compared to (N)CIR; also recorded: increased activation and downstream signal strength”. Moreover, in [6] (CD28-CAR T cells, 1 nM, 10 nM), the “cytokine production, compared to PSMA-(N)CIR” value is listed as “increased cytokine production at lower concentrations”. For the same compound, the cytokine production result in data set [6] (CD28-CAR T cells, highest concentration (100 nM)) is reported as “equivalent levels of cytokine production”; in [6] (DAP12-SAR T cells, 1, 10, 100 nM), “strongest activation was mediated by the CIR”; in data set [6] (TAC T cells, 1, 10, 100 nM), “only activated by the CIR”. For the same compound, the “production of interferon-gamma and tumor necrosis factor-alpha” value in data set [6] (all three engineered receptors (TAC, DAP12-SAR, CD28-CAR) ABT cells, 1, 10, 100 nM) was “target specific production of interferon-gamma and tumor necrosis factor-alpha; also recorded: Increased cytokine production”. Besides, the “T cell proliferation, PSMA-CIR versus PSMA-(N)CIR” value in [7] (Anti-DNP CD28 CAR T cells) is given as “performed similarly”. Moreover, the “T cell proliferation (percent divided)” value in data set [7] (Anti-DNP DAP12 SAR T cells, 1 nM, 10 nM, or 100 nM) was “robust proliferation”; in data set [7] (Anti-DNP TAC T cells, 1, 10, 100 nM, 3 days) it was “only entered proliferation when co-cultured with 293-PSMA cells and 100 nM PSMA-CIR”. Besides, the “Nur77 and CD69 (off-target activation)” value in data set [8] was “no increase of Nur77 or CD69 above the media-only control”. Moreover, the “cytokine production in controls” value in data set [9] was “the controls showed no cytokine production”.
As to `CC(C)C[C@H](NC(=O)[C@H](Cc1ccc(O)cc1)NC(=O)[C@@H](CCCNC(=N)N)NC(=O)[C@@H](CO)NC(=O)[C@H](Cc1ccccc1)NC(=O)[C@H](CC1CCCCC1)NC(=O)[C@H](CC(=O)O)NC(=O)CNC(=O)[C@H](CO)NC(=O)CNC(=O)CNC(=O)[C@H](CCCCNc1ccc([N+](=O)[O-])cc1[N+](=O)[O-])NC(=O)c1cccc(S(=O)(=O)F)c1)C(=O)N[C@@H](Cc1c[nH]c2ccccc12)C(=O)N[C@@H](CO)C(=O)O` [uPAR-CIR, DNP-SuFEx-uPAR binding peptide], the “cytotoxicity towards A172 cells” value in [10] is “exhibited cytotoxicity; also recorded: can be redirected”.
